Assay results reported in article PMC7698448, “Design, Synthesis, and Biological Evaluation of Pyridazinones Containing the (2-Fluorophenyl) Piperazine Moiety as Selective MAO-B Inhibitors” (Molecules, 2020).
“Also recorded” adds a separate entry of the source.

Legend:
[1] = target: T1, recombinant human MAO-A (Homo sapiens, UniProt P21397); test: Recombinant human MAO-A inhibition assay (kynuramine substrate); assay type: biochemical; conditions: kynuramine 0.06 mM, 15 min preincubation; for remaining activity at 10 µM: inhibitor 10 µM, read-out: Residual Activity (%) MAO-A (10 µM)
T1 construct: purchased Sigma-Aldrich
T1 sequence (P21397 1-527): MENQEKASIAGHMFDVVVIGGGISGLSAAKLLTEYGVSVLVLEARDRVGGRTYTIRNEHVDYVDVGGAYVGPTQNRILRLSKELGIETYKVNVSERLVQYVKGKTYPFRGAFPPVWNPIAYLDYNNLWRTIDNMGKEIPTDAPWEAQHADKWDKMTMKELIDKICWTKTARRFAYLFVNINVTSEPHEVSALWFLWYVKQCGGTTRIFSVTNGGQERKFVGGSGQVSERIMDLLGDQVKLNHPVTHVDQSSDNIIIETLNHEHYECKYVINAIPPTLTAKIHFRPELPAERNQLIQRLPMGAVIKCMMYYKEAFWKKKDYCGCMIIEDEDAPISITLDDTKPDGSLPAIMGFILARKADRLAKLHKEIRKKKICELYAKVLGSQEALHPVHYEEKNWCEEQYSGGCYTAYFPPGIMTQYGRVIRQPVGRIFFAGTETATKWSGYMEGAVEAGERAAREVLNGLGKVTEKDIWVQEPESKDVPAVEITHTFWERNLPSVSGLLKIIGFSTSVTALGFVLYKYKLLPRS
Procedure: Recombinant human MAO-A and MAO-B inhibitory activities of were continuously assayed as described previously [37], using kynuramine (0.06 mM) and benzylamine (0.3 mM), respectively. […] MAO-A and MAO-B inhibitory activities were measured after preincubating enzymes and inhibitors for 15 min.
The inhibitory activities of the twelve compounds against MAO-A and MAO-B were first investigated at an inhibitor concentration of 10 µM. For the compounds showing residual activities of <50%, IC50 values for MAO-A and MAO-B inhibitions were determined. Kinetic experiments were carried out at five substrate and three inhibitor concentrations [38].

[2] = target: T2, MAO-B (Homo sapiens, UniProt P27338); test: Recombinant human MAO-B inhibition assay (benzylamine substrate); conditions: for SI (IC50 of MAO-A/IC50 of MAO-B): selectivity index for MAO-B; for Times more potent on MAO-B than lazabemide: ratio of MAO-B potency versus reference reversible inhibitor lazabemide
T2 sequence (P27338 1-520): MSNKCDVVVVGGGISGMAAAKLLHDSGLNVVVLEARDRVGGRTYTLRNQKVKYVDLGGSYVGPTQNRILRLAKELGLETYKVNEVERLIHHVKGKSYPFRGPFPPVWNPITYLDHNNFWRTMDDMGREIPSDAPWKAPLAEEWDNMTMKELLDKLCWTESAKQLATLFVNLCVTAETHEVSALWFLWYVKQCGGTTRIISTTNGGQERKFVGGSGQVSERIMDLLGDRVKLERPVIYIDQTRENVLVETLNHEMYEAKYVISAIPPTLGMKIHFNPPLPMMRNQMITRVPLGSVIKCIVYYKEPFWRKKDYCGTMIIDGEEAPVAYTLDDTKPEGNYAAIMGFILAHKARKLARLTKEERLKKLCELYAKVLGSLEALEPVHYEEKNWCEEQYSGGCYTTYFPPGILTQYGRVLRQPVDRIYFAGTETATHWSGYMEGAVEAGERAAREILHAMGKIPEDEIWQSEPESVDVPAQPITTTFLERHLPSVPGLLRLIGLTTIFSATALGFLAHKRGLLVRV
Procedure: Recombinant human MAO-A and MAO-B inhibitory activities of were continuously assayed as described previously [37], using kynuramine (0.06 mM) and benzylamine (0.3 mM), respectively. […] MAO-A and MAO-B inhibitory activities were measured after preincubating enzymes and inhibitors for 15 min. Enzymes and chemicals were obtained from Sigma-Aldrich (St. Louis, MO, USA).
(§2) Kinetic experiments were carried out at five substrate and three inhibitor concentrations [38].

[3] = target: T2, MAO-B; test: Reversibility of MAO-B inhibition by dialysis; assay type: biochemical; set-up: purchased Sigma-Aldrich; conditions: for Relative MAO-B activity of dialyzed sample (AD) / Relative MAO-B activity of undialyzed sample (AU): 30 min preincubation, T3 0.080 µM, T6 0.020 µM, lazabemide 0.30 µM; for Relative MAO-B activity of dialyzed sample (AD): after dialysis; for Reversibility of MAO-B inhibition (recovery by dialysis): pargyline 0.060 µM
Procedure: Reversibility studies were performed using a dialysis-based method.
The reversibilities of T3 and T6 inhibitions were investigated by dialysis after preincubating them with MAO-B for 30 min, as previously described. […] Reversibilities were determined using the relative activities of undialyzed (AU) and dialyzed (AD) samples [40].

[4] = MTS cytotoxicity assay in L929 cells; assay type: cell-based, mouse; conditions: mouse, L929 cells (mouse fibroblast cell line), 48 h treatment
Procedure: (§1) An MTS (5-(3-carboxymethoxyphenyl)-2-(4,5-dimethyl-thiazolyl)-3-(4-sulfophenyl)) tetrazolium assay was used to evaluate the cytotoxic activities of T3 and T6 by measuring formazan absorbance. MTS is converted to formazan by mitochondria in metabolically active cells via NAD(P)H-dependent dehydrogenase enzymes. L929 cells (a mouse fibroblast cell line) were used to evaluate the cytotoxicities. Briefly, cells (5 × 10^4 cells/well) were seeded into 96-well plates in DMEM containing 10% fetal bovine serum and 1% penicillin/streptomycin, and incubated for 24 h. After supernatants were removed, the cells were treated with the compounds dissolved in DMSO (at 1, 10, 20, 50, or 100 µM) in triplicate for 48 h at 37 °C in a 5% CO2 atmosphere. MTS reagent (Uptima, Interchim, Montluçon, France) was then added to each well and incubated for 3 h. Absorbances were measured at 490 nm using a microplate reader (BioTek, Winooski, VT, USA), and cell viabilities were calculated as percentage of untreated controls.

[5] = test system: L929 cells; test: MTS cytotoxicity assay in L929 cells; assay type: cell-based, mouse; conditions: 48 h
Procedure: as §1

[6] = target: T2, MAO-B; test: Kinetics of MAO-B inhibition (Lineweaver-Burk and secondary plots); assay type: biochemical; set-up: purchased Sigma-Aldrich
Procedure: as §2

Compound | remaining activity at 10 µM [1] | IC50 [1] | IC50 [2] | SI (IC50 of MAO-A/IC50 of MAO-B) [2] | melting point | further results
CN(C)c1ccc(C=NNC(=O)Cn2nc(N3CCN(c4ccccc4F)CC3)ccc2=O)cc1 [Compound T7] | 25.4 ± 6.92% | 4.43 ± 0.29 µM | 870 ± 56 nM |  |  | 
O=C(Cn1nc(N2CCN(c3ccccc3F)CC2)ccc1=O)NN=Cc1ccccc1F [Compound T9, 6-[4-(2-Fluorophenyl)piperazine-1-yl]-3(2H)-pyridazinone-2-acetyl-2-(2-fluorobenzal)hydrazon] | 35.2 ± 0.56% | 6.76 ± 0.46 µM | 200 ± 1.7 nM | 33.8 | 225 to 226 °C | 
COc1ccc(C=NNC(=O)Cn2nc(N3CCN(c4ccccc4F)CC3)ccc2=O)cc1 [Compound T11, 6-[4-(2-Fluorophenyl)piperazine-1-yl]-3(2H)-pyridazinone-2-acetyl-2-(4-methoxybenzal)hydrazon] | 70.4 ± 8.5% |  | 6860 ± 370 nM |  | 148 to 150 °C | 
COc1ccccc1C=NNC(=O)Cn1nc(N2CCN(c3ccccc3F)CC2)ccc1=O [Compound T6] | 20.7 ± 0.62% | 1.57 ± 0.8 µM | 13 ± 1.6 nM | 120.8 |  | Relative MAO-B activity of dialyzed sample (AD) [3]: 79.0%; Relative MAO-B activity of undialyzed sample (AU) [3]: 36.9%; Reversibility of MAO-B inhibition (recovery by dialysis) [3]: reversibly inhibit MAO-B; also recorded: reversible; Times more potent on MAO-B than lazabemide [2]: 11; MAO-B potency relative to pargyline ([2]; versus reference irreversible inhibitor pargyline): twice as potent; IC50 at 48 h [4]: > 100000 nM; Cytotoxic effect on L929 cells at any dose ([5]; 1, 10, 20, 50, or 100 µM): did not have a cytotoxic effect; Type of MAO-B inhibition [6]: competitive inhibitors
O=C(Cn1nc(N2CCN(c3ccccc3F)CC2)ccc1=O)NN=Cc1cccc(Br)c1 [Compound T8, 6-[4-(2-Fluorophenyl)piperazine-1-yl]-3(2H)-pyridazinone-2-acetyl-2-(3-bromobenzal)hydrazon] | 73.3 ± 2.86% |  | 2670 ± 51 nM |  | 207 to 208 °C | 
Cc1ccc(C=NNC(=O)Cn2nc(N3CCN(c4ccccc4F)CC3)ccc2=O)cc1 [Compound T2] | 24.6 ± 2.86% | 4.29 ± 0.12 µM | 100 ± 35 nM | 42.9 |  | 
O=C(Cn1nc(N2CCN(c3ccccc3F)CC2)ccc1=O)NN=Cc1ccc(Cl)cc1 [Compound T4] | 75.2 ± 4.7% |  | 99 ± 6.9 nM |  |  | 
O=C(Cn1nc(N2CCN(c3ccccc3F)CC2)ccc1=O)NN=Cc1ccccc1 [Compound T1] | 96.6 ± 1.2% |  | 7680 ± 140 nM |  |  | 
O=C(Cn1nc(N2CCN(c3ccccc3F)CC2)ccc1=O)NN=Cc1ccc(Br)cc1 [Compound T5] | 84 ± 0.68% |  | 1680 ± 110 nM |  |  | 
O=C(Cn1nc(N2CCN(c3ccccc3F)CC2)ccc1=O)NN=Cc1ccc(F)cc1 [Compound T10, 6-[4-(2-Fluorophenyl)piperazine-1-yl]-3(2H)-pyridazinone-2-acetyl-2-(4-florobenzal)hydrazon] | 33.7 ± 4.7% | 7.35 ± 0.059 µM | 35300 ± 390 nM | 0.21 | 178 to 180 °C | 
O=C(Cn1nc(N2CCN(c3ccccc3F)CC2)ccc1=O)NN=Cc1ccccc1Cl [Compound T3] | 24.6 ± 0.97% | 4.19 ± 0.27 µM | 39 ± 2.8 nM | 107.4 |  | Relative MAO-B activity of dialyzed sample (AD) [3]: 79.4%; Relative MAO-B activity of undialyzed sample (AU) [3]: 22.2%; Reversibility of MAO-B inhibition (recovery by dialysis) [3]: reversibly inhibit MAO-B; also recorded: reversible; Times more potent on MAO-B than lazabemide [2]: 3; IC50 at 48 h [4]: 27000 nM; Cytotoxic effect on L929 cells at 1, 10, or 20 µM ([5]; 1, 10, or 20 µM): no significant death; Cytotoxic effect on L929 cells at 50 and 100 µM ([5]; 50 and 100 µM): complete cell death; Type of MAO-B inhibition [6]: competitive inhibitors
Cc1ccccc1C=NNC(=O)Cn1nc(N2CCN(c3ccccc3F)CC2)ccc1=O [Compound T12, 6-[4-(2-Fluorophenyl)piperazine-1-yl]-3(2H)-pyridazinone-2-acetyl-2-(2-methylbenzal)hydrazon] | 61.8 ± 1.65% |  | 150 ± 21 nM |  | 244 to 245 °C | 
